# Laboratory results: ChEMBL document CHEMBL5143671, “Discovery of (R)-(3-fluoropyrrolidin-1-yl)(6-((5-(trifluoromethyl)pyridin-2-yl)oxy)quinolin-2-yl)methanone (ABBV-318) and analogs as small molecule Nav1.7/ Nav1.8 blockers for the treatment of pain” (Bioorg Med Chem, 2022)
# Tests used:
# physchem [1] = settings: octanol/water
# in vivo [2] = settings: Sprague-Dawley, rat, iv
# [3] = molecular target: Voltage-gated inwardly rectifying potassium channel KCNH2 (Homo sapiens, UniProt Q12809);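 also: hERG channel blockade measured by electrophysiology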
# in vitro [4] = settings: dog, MDCK
# physchem [5] = settings: phosphate buffer
# in vitro [6] = settings: PAMPA
# [7] = molecular target: Sodium channel protein type 5 subunit alpha (Homo sapiens, UniProt Q14524)
# in vivo [8] = settings: Sprague-Dawley, rat, po
# [9] = rat, in vivo, po
# in vivo [10] = settings: Sprague-Dawley, rat, po; remark: listed apart in the source
# MDR1 = experiment: in vitro; settings: dog, MDCK-MDR1
# [11] = rat, microsomes, 0.5 h, 0.5 µM
# [12] = human, microsomes, 0.5 h, 0.5 µM
# Rattus norvegicus [13] = experiment: Antiallodynic activity in Sprague-Dawley rat model of L5/L6 spinal nerve ligation-induced neuropathic pain assessed as maximal possible effect at 10 mg/kg, po; format: functional
# [14] = Drug concentration in plasma of Sprague-Dawley rat model of L5/L6 spinal nerve ligation-induced neuropathic pain at 100 mg/kg, po by LC/MS analysis; format: ADME, organism-based; settings: in vivo
# [15] = Drug concentration in plasma of Sprague-Dawley rat model of L5/L6 spinal nerve ligation-induced neuropathic pain at 30 mg/kg, po by LC/MS analysis; format: ADME, organism-based; settings: in vivo
# [16] = molecular target: Sodium channel protein type 10 subunit alpha (Homo sapiens, UniProt Q9Y5Y9); experiment: Inhibition of human Nav1.8 by FRET based membrane potential assay
# [17] = Drug concentration in brain of Sprague-Dawley rat model of L5/L6 spinal nerve ligation-induced neuropathic pain at 10 mg/kg, po by LC/MS analysis; format: ADME, organism-based; settings: in vivo
# [18] = Drug concentration in plasma of Sprague-Dawley rat model of L5/L6 spinal nerve ligation-induced neuropathic pain at 10 mg/kg, po by LC/MS analysis; format: ADME, organism-based; settings: in vivo
# Rattus norvegicus [19] = experiment: Antiallodynic activity in Sprague-Dawley rat model of L5/L6 spinal nerve ligation-induced neuropathic pain assessed as maximal possible effect at 30 mg/kg, po; format: functional
# [20] = molecular target: Sodium channel protein type 9 subunit alpha (Homo sapiens, UniProt Q15858)
# [21] = molecular target: Sodium channel protein type 2 subunit alpha (Homo sapiens, UniProt Q99250); experiment: Inhibition of recombinant human Nav1.2 expressed in HEK293 cells incubated for 3 mins by FRET based membrane potential assay; format: cell-based
# [22] = Ratio of free drug concentration in brain to plasma of rat; format: ADME, cell-free; settings: brain and plasma
# Rattus norvegicus [23] = experiment: Antiallodynic activity in Sprague-Dawley rat model of L5/L6 spinal nerve ligation-induced neuropathic pain assessed as maximal possible effect at 100 mg/kg, po; format: functional
# [24] = Drug concentration in brain of Sprague-Dawley rat model of L5/L6 spinal nerve ligation-induced neuropathic pain at 100 mg/kg, po by LC/MS analysis; format: ADME, organism-based; settings: in vivo
# [25] = Drug concentration in brain of Sprague-Dawley rat model of L5/L6 spinal nerve ligation-induced neuropathic pain at 30 mg/kg, po by LC/MS analysis; format: ADME, organism-based; settings: in vivo
# 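For logD in this document: distribution coefficient quantified using high-throughput LC-MS.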
# 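For solubility in this document: determined using a high-throughput solubility method.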
# Voltage-gated inwardly rectifying potassium channel KCNH2, sequence (Q12809 whole entry): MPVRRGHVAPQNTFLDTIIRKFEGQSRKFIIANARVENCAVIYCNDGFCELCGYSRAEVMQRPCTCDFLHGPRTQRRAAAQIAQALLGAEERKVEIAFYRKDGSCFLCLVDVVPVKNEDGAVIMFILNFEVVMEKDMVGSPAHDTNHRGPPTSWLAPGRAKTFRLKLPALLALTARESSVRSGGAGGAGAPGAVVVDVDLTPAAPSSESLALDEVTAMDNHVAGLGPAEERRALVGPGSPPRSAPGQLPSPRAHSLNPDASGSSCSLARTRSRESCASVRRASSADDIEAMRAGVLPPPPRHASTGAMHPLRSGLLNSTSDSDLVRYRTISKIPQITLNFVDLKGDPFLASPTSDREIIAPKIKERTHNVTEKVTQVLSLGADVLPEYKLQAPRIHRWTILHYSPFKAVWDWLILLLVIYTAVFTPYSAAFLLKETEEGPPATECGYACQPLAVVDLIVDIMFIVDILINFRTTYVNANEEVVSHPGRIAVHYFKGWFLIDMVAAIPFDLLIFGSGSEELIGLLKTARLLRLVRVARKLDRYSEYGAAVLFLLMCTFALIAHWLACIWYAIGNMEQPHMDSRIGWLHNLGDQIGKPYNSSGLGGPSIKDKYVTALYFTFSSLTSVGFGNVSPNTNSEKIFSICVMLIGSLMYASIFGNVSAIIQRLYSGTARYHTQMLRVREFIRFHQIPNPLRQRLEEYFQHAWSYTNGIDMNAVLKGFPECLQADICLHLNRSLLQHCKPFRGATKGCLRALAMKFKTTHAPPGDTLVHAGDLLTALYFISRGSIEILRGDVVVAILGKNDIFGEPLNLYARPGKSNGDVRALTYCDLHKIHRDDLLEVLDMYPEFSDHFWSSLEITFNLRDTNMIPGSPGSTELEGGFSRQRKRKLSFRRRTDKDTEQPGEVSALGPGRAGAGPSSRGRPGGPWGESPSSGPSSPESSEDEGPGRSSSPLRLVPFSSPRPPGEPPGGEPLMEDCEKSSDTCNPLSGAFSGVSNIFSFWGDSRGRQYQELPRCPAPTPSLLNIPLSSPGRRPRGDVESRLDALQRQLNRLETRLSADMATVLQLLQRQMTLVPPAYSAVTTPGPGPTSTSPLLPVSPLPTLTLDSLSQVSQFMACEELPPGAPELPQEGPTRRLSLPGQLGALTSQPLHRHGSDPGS
# Sodium channel protein type 5 subunit alpha, sequence (Q14524 whole entry): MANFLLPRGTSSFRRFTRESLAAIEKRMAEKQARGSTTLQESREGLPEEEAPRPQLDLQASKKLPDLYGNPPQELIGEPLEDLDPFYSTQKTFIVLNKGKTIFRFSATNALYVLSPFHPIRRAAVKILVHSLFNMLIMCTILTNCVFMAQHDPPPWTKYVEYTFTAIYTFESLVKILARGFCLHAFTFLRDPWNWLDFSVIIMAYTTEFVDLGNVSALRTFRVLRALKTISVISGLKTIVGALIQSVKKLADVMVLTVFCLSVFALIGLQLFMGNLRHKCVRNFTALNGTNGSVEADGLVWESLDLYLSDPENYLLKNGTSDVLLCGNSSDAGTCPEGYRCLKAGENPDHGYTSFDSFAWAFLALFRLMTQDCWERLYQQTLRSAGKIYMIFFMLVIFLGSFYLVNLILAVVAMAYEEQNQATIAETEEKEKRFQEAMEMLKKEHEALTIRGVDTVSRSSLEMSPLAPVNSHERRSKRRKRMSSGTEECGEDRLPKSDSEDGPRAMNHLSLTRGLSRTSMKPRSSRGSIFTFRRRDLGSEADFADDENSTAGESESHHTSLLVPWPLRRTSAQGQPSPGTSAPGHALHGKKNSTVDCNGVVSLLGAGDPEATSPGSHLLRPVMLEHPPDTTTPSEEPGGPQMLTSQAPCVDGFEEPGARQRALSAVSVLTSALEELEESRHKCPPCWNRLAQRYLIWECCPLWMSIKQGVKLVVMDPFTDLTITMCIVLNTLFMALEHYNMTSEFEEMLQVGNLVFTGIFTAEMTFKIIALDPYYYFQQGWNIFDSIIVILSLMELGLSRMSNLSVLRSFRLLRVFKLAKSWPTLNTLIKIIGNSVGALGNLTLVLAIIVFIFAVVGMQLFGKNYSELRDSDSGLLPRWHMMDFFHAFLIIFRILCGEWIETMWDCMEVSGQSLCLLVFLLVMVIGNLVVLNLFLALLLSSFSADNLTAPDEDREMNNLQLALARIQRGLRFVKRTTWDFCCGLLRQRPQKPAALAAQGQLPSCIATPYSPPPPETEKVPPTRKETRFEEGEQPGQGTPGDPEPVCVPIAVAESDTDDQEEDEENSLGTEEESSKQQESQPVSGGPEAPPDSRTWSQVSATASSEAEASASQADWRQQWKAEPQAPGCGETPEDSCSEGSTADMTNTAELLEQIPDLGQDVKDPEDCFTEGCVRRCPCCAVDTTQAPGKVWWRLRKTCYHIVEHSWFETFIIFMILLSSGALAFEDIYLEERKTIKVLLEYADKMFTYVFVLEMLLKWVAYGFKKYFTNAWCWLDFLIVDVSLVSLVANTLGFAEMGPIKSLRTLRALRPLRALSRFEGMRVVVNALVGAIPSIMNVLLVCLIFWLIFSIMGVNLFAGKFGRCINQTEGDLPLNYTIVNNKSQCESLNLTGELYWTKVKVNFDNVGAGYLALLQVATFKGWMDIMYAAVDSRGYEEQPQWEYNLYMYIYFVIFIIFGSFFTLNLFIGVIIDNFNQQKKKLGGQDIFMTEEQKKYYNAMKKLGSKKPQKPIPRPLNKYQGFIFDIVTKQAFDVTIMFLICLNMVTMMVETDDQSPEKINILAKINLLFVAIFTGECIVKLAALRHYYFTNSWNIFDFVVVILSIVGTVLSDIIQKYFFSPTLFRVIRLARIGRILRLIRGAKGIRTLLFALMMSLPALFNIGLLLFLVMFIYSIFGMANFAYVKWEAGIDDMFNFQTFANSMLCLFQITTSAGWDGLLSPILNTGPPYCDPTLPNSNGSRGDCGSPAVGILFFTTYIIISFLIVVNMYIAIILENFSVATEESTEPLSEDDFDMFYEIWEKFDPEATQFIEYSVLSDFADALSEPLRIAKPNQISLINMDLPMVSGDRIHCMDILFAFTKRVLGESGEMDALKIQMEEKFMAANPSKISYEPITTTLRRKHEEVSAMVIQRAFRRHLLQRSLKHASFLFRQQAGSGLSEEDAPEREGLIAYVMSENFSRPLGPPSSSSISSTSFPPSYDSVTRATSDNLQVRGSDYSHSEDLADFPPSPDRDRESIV
# Sodium channel protein type 10 subunit alpha, sequence (Q9Y5Y9 whole entry, looked up): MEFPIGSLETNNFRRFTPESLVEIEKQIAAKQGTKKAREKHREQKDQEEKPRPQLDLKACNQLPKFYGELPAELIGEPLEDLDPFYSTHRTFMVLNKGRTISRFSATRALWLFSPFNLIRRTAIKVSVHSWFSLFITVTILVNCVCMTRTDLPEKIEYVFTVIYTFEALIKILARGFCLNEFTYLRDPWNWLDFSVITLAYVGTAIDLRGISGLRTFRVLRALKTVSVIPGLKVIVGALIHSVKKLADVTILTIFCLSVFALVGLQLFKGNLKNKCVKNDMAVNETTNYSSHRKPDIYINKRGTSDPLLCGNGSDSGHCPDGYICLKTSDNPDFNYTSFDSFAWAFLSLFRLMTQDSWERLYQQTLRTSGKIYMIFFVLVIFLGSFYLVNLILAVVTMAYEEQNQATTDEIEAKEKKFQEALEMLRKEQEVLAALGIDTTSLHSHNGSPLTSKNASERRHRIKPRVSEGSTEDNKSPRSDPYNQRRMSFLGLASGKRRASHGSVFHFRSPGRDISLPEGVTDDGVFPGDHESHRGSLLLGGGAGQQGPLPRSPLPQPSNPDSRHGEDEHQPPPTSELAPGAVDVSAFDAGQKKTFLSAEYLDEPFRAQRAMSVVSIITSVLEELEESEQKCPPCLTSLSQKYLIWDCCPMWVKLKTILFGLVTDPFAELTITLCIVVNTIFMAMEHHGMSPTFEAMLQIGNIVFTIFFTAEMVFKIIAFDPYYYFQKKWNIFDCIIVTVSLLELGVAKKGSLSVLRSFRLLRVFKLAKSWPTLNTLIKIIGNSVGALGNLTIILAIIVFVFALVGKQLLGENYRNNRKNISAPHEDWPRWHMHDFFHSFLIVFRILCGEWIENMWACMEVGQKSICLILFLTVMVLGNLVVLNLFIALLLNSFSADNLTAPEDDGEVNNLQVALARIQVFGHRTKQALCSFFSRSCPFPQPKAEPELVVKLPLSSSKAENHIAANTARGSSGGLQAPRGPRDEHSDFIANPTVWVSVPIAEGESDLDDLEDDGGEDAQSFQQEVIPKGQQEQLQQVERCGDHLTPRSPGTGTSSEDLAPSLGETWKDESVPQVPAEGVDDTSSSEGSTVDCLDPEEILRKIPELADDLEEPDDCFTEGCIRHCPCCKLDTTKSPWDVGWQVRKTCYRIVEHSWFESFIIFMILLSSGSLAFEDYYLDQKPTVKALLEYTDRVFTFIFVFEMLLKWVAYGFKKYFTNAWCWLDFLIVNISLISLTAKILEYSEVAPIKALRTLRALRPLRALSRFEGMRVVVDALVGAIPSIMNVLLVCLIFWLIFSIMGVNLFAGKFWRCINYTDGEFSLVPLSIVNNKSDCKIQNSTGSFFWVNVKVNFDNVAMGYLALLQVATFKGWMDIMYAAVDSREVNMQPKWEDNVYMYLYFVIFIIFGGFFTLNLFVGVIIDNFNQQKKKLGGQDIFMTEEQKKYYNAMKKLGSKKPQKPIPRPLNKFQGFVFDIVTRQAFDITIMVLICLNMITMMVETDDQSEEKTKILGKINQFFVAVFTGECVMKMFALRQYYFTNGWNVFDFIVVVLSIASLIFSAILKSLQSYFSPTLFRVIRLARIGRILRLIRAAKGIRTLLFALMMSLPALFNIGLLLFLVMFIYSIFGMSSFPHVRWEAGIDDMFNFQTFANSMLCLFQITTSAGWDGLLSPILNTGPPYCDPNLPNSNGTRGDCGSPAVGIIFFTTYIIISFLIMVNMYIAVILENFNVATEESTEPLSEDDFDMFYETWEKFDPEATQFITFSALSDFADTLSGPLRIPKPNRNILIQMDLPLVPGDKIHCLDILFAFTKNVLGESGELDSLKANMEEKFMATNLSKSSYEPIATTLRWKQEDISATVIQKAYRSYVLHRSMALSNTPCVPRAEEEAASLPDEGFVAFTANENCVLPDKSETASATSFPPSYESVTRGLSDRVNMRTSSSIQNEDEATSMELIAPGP
Structure (SMILES),logD (physchem [1]),Papp (in vitro [4]) [×10⁻⁶ cm/s],solubility (physchem [5]) [µM],Papp (in vitro [6]) [×10⁻⁶ cm/s],CLH [11] [mL/min/kg],CLH [12] [mL/min/kg],IC50 [3] [µM],IC50 [7] [µM],also measured
O=C(N[C@@H]1CCOC1=O)c1ccc2cc(Oc3ccc(C(F)(F)F)cn3)ccc2n1,,,5,32.7,,,,33,
O=C(c1ccc2cc(Oc3ccc(C(F)(F)F)cn3)ccc2n1)N1CCCC1,,,,,,,,33,
O=C(N[C@H]1C[C@@H](O)C1)c1ccc2cc(Oc3ccc(C(F)(F)F)cn3)ccc2n1,,,10,19.5,,,,33,bioavailability (in vivo [8]): 23%; clearance (in vivo [2]): 60.3 mL/min/kg
O=C(c1ccc2cc(Oc3ccc(C(F)(F)F)cn3)ccc2n1)N1CCC1,,,,,,,,33,
O=C(NC1CC(F)C1)c1ccc2cc(Oc3ccc(C(F)(F)F)cn3)ccc2n1 (stereo not drawn),,,5,16.7,,,,33,
O=C(NC1CCC1)c1ccc2cc(Oc3ccc(C(F)(F)F)cn3)ccc2n1,,,5,3.4,,,,31.3,
O=C(NC1CCOC1)c1ccc2cc(Oc3ccc(C(F)(F)F)cn3)ccc2n1 (stereo not drawn),,,,,,,,33,
O=C(NC1CC(F)(F)C1)c1ccc2cc(Oc3ccc(C(F)(F)F)cn3)ccc2n1,,,5,12.1,,,,33,bioavailability (in vivo [8]): 82%
NC(=O)CNC(=O)COc1ccc2cc(Oc3ccccn3)ccc2n1,2.2,8.7,57.5,,< 45,33,30,,
N#Cc1ccc(-c2ccc3c(ccc(=O)n3CC(=O)N3CCCCC3)c2)cc1,,,,16.1,100,33,17,,
O=C(COc1ccc2cc(Oc3ccc(C(F)(F)F)cn3)ccc2n1)N1CCCCC1,,38.6,48,,917,233,,,
N#Cc1ccc(-c2ccc3c(ccc(=O)n3CCN3CCCCC3)c2)cc1,,,,8.3,100,33,< 1,,
O=C1CN(C(=O)COc2ccc3cc(Oc4ccccn4)ccc3n2)CCN1,,22,200,,< 65,65,30,,
N#Cc1ccc(Oc2ccc3c(ccc(=O)n3CCN3CCCCC3)c2)cc1,3.4,,140,3.7,633,150,< 1,1.6,MPE (Rattus norvegicus [13]): 54%; Cp [14]: 1270 ng/mL; bioavailability (in vivo [8]): 17%; Cp [15]: 470 ng/mL; IC50 [16]: 0.08 µM; clearance (in vivo [2]): 52.7 mL/min/kg; Ct [17]: 0.56 µg/mL; Cp [18]: 290 ng/mL; MPE (Rattus norvegicus [19]): 53%; IC50 [20]: 2.28 µM; IC50 [21]: 3.4 µM; Kp uu [22]: 0.45; MPE (Rattus norvegicus [23]): 89%; Ct [24]: 3.38 µg/mL; Ct [25]: 1.05 µg/mL
O=C(COc1ccc2cc(Oc3ccccn3)ccc2n1)N1CCCCC1,3.6,66.9,156,,2400,100,30,,
CN1CCN(C(=O)COc2ccc3cc(Oc4ccc(C(F)(F)F)cn4)ccc3n2)CC1,,,200,,967,100,,,
O=C1CN(C(=O)COc2ccc3cc(Oc4ccc(C(F)(F)F)cn4)ccc3n2)CCN1,3.2,44.1,23,,< 61.7,< 56.7,,,

# Continued, in another order:
logD (physchem [1]),Papp (in vitro [4]) [×10⁻⁶ cm/s],solubility (physchem [5]) [µM],Papp (in vitro [6]) [×10⁻⁶ cm/s],CLH [11] [mL/min/kg],CLH [12] [mL/min/kg],Structure (SMILES),IC50 [3] [µM],IC50 [7] [µM],also measured
3,52.2,200,,,,O=C(c1ccc2cc(Oc3cccc(C(F)(F)F)n3)ccc2n1)N1CCNCC1,12.8,,clearance (in vivo [2]): 83.3 mL/min/kg
1.1,8,200,,,,CN1CCN(C(=O)c2ccc3cc(Oc4ccccn4)ccc3n2)CC1,16.8,,clearance (in vivo [2]): 70 mL/min/kg
,,55,31.6,,,O=C(c1ccc2cc(Oc3ccc(C(F)(F)F)cn3)ccc2n1)N1CC[C@H](F)C1,,33,bioavailability (in vivo [8]): 104%; Vdss [9]: 6.47 L/kg; clearance (in vivo [2]): 12.8 mL/min/kg; half-life (in vivo [10]): 3.67 h
2.1,,138,1.5,,,O=C(c1ccc2cc(Oc3ncc(C(F)(F)F)cn3)ccc2n1)N1CCNCC1,,,
3.4,,150,5.1,,,O=C(c1ccc2cc(Oc3ccc(OC(F)(F)F)cn3)ccc2n1)N1CCNCC1,12.8,,bioavailability (in vivo [8]): 92%; half-life (in vivo [10]): 12.6 h
4,,140,2.1,,,O=C(c1ccc2cc(Oc3ccc(C(F)(F)F)cc3)ccc2n1)N1CCNCC1,5.91,,efflux ratio (MDR1): 3.7
2.7,,149,3.8,,,O=C(c1ccc2cc(Oc3cnc(C(F)(F)F)cn3)ccc2n1)N1CCNCC1,18.6,,efflux ratio (MDR1): 16.1
,,5,3.04,,,O=C(c1ccc2cc(Oc3ccc(C(F)(F)F)cn3)ccc2n1)N1CC(F)(F)C1,,10.2,
,,150,,,,O=C(c1ccc2cc(Oc3ccc(F)cn3)ccc2n1)N1CCNCC1,17,,
,,78,24.3,,,O=C(c1ccc2cc(Oc3ccc(C(F)(F)F)cn3)ccc2n1)N1CCNC(C(F)(F)F)C1 (stereo not drawn),,33,bioavailability (in vivo [8]): 106%; Vdss [9]: 9.23 L/kg; clearance (in vivo [2]): 40.5 mL/min/kg; half-life (in vivo [10]): 3.17 h
,,18,21.5,,,CS(=O)(=O)C1CN(C(=O)c2ccc3cc(Oc4ccc(C(F)(F)F)cn4)ccc3n2)C1,,,bioavailability (in vivo [8]): 126%; half-life (in vivo [10]): 3.4 h
3.4,49,200,,,,O=C(c1ccc2cc(Oc3cc(C(F)(F)F)ccn3)ccc2n1)N1CCNCC1,7.3,,bioavailability (in vivo [8]): 91%; clearance (in vivo [2]): 115 mL/min/kg
3.1,19.7,145,,,,CC(=O)c1ccc(Oc2ccc3nc(C(=O)N4CCNCC4)ccc3c2)cc1,23.6,,bioavailability (in vivo [8]): 54%; half-life (in vivo [10]): 3.3 h
2.6,0.4,194,,,,N#Cc1ccc(Oc2ccc3nc(C(=O)N4CCNCC4)ccc3c2)cc1,5.2,,bioavailability (in vivo [8]): 89%; clearance (in vivo [2]): < 33.3 mL/min/kg
,24.6,46,,,,O=C(c1ccc2cc(Oc3ccc(C(F)(F)F)cn3)ccc2n1)N1CCN(CC(F)(F)F)CC1,,33,
3.8,,150,0.8,,,O=C(c1ccc2cc(Oc3ccc(S(=O)(=O)C(F)(F)F)cc3)ccc2n1)N1CCNCC1,4.27,,efflux ratio (MDR1): 45.5
2.9,,143,2.7,,,N#Cc1ccc(COc2ccc3nc(C(=O)N4CCNCC4)ccc3c2)cc1,5.61,,efflux ratio (MDR1): 23.4
3.4,30.1,,,< 50,50,N#Cc1ccc(Oc2ccc3nc(OCC(=O)N4CCOCC4)ccc3c2)cc1,,,
2.7,29.4,200,,200,183,O=C(COc1ccc2cc(Oc3ccccn3)ccc2n1)N1CCNCC1,,,
3,12.8,0.824,,< 50,33,N#Cc1ccc(Oc2ccc3nc(OCC(=O)NCC(N)=O)ccc3c2)cc1,> 30,,efflux ratio (MDR1): 14.9
3.1,32.1,141,,< 50,< 33,N#Cc1ccc(Oc2ccc3nc(OCC(=O)N4CCNC(=O)C4)ccc3c2)cc1,,,
3.5,,,,217,50,N#Cc1ccc(Oc2ccc3nc(OCCN4CCCCC4)ccc3c2)cc1,< 1,,
